Test results as given in patent US5578622A, “Isothiazole derivatives and their uses” (Asamura Patent Office, priority 1994, dated 1996).

Assays:
[1] = system: Aspergillus fumigatus TIMM 0063; assay: In vitro antimycotic activity on Aspergillus fumigatus; format: cell-based; details: TIMM0063, 10 (ppm), Casitone agar, 37° C., 48 hours, read-out: Antimycotic activity (growth inhibitory rate), A.fumigatus
Description: 3-2 In vitro antimycotic activity on Aspergillus fumigatus.
To Aspergillus fumigatus TIMM 0063 precultured at 37° C. for 48 hours on a potato dextrose agar (PDA) slant medium was added a sterilized physiological salt solution containing 0.1%(W/V) Tween 80. After conidia were made free from the solution, the solution was filtered through a sterilized two-sheet gauze to remove the mycelium mass. The number of the conidia in the resulting suspension was counted with a globulimeter and adjusted so as to be 1×10^5 conidia/ml with a sterilized physiological salt solution containing 0.1%(W/V) Tween 80. This solution was used as an inoculum solution. Casitone agar plate medium containing the DMSO solution of the test compound in a rate of 1% (V/V) was inoculated with the inoculum solution at four places thereof with a microplanter, and cultured with the medium allowed to stand at 37° C. for 48 hours. After culture, the diameter of the mycelium disks cultivated at the four inoculated parts was measured, and its mean value was obtained. The growth inhibitory rate was calculated according to the following equation, and the antimycotic activity was shown in the same manner as in Test Example 3-1.
Growth inhibitory rate (%)=(1-W'/Y')×100
Y': Diameter of mycelium disk of DMSO control group
W': Diameter of mycelium disk of test compound group

[2] = system: Trichophyton mentagrophytes IFO 5810; assay: In vitro antimicrobial activity on Trichophyton mentagrophytes; format: cell-based; design: key: A: Fungus is not observed at all with the naked eye.; B: Presence of fungus is slightly observed on shaking the test tube.; C: Fungus of about less than one-fourth that of the DMSO control group is observed with the naked eye.; Fungus of about less than half that of the DMSO control group is observed with the naked eye; details: 10 (ppm); SGB, 27° C., 7 days
Description: 3-3 In vitro antimicrobial activity on Trichophyton mentagrophytes To Trichophyton mentagrophytes IFO 5810 precultured at 27° C. for 2 to 3 weeks on a Sabouraud's glucose agar (SGA) slant medium was added a sterilized physiological salt solution containing 0.1% (W/V) Tween 80. After conidia were made free from the solution, the solution was filtered through a sterilized two-sheet gauze to remove the mycelium mass. The number of the conidia in the resulting suspension was counted with a globulimeter and adjusted so as to be 1×10^6 conidia/ml with a sterilized physiological salt solution containing 0.1%(W/V) Tween 80. This solution was used as an inoculum solution. Thereafter, 0.1 ml of this solution and 0.1 ml of the dimethyl sulfoxide (DMSO) solution of the test compound were added to 9.8 ml of Sabouraud's glucose broth (SGB), and shake-cultured at 27° C. for 7 days.

[3] = system: Candida albicans IFO 1270; assay: In vitro antimycotic activity on Candida albicans; format: cell-based; details: IFO1270, 10 (ppm), SGB, 37° C., 48 hours, turbidity at 650 nm, read-out: Antimycotic activity (growth inhibitory rate), C.albicans
Description: 3-1 In vitro antimycotic activity on Candida albicans
Candida albicans IFO 1270 pre-cultured on a Sabouraud's glucose agar (SGA) plate medium at 37° C. […] was suspended in a sterilized physiological salt solution. The number of fungi in the resulting suspension was counted with a globulimeter, and adjusted so as to be 1×10^7 cell/ml with a sterilized physiological salt solution. This solution was used as an inoculum solution. Thereafter, 0.1 ml of this solution and 0.1 ml of a dimethyl sulfoxide (DMSO) solution of the test compound were added to 9.8 ml of Sabouraud's glucose broth (SGB), and shake-cultured at 37° C. for 48 hours. After culture, the medium turbidity was measured at 650 nm, and the growth-inhibitory rate of the fungus was calculated according to the following equation.
Growth inhibitory rate (%)=(1-W/Y)×100
Y: Medium turbidity of DMSO control group
W: Medium turbidity of test compound group
From this inhibitory rate, the antimycotic activity was shown by the symbols A to D. The test results of the test compounds are shown in Table 4.

Rhizopus nigricans = assay: Test for wood rotting-preventing effect (mycelium growth inhibition on malt extract agar); format: cell-based; details: Rhizopus stolonifer, 28° C.±2° C., 2 to 10 days, read-out: Rotting preventing effect (mycelium growth-inhibitory rate), RHN
Description: (§1) The following fungi were cultured in agar media, respectively, and mycelial disks on the media were stamped out together with the agar using a cork borer of 4 mm in diameter. The resulting mycelial disks on agar were used as an inoculum. Each test compound of 50 ppm was added to a malt extract agar medium and added in parts to Petri dishes. The above prepared inoculum was put on the Petri dishes and cultured at 28° C.±2° C. Two to ten days after inoculation, the diameter of the mycelial disk of each fungus was measured, and the mycelium growth-inhibitory rate was obtained according to the following equation. [formula] The mycelium growth-inhibitory rate (%) is indicated by the following symbols as a fungicidal effect on each fungus, and the results are shown in Table 2. | RHN: Rhizopus nigricans

[4] = system: Pseudoperonospora cubensis; assay: Test for controlling effect on downy mildew of cucumber; format: in vivo; details: 168 h, 200 ppm spray, one day before inoculation, cucumber 2-leaf stage, read-out: Controlling effect (control of disease), Downy mildew of cucumber
Description: 2-2 Test for controlling effect on downy mildew of cucumber (Pseudoperonospora cubensis) A test compound adjusted to 200 ppm was sprayed onto cucumber at the 2-leaf stage cultivated in pots. After one day, the cucumber was inoculated by spraying the zoospore suspension of Pseudoperonospora cubensis. After inoculation, the cucumber was placed in a 25° C.-humid room for 1 day and then in a greenhouse for 6 days. Thus, the cucumber was made to be infected with downy mildew. The control of disease of the test compound is calculated by comparing the degree of infection of each leaf with that in the untreated plot. The control of disease is shown as a controlling effect in the same manner as in Test Example 2-1.

Rhizoctonia solani = assay: Test for controlling effect on sheath blight of rice; format: in vivo; details: 120 h, 200 ppm spray, 24 hours after inoculation, rice 4-leaf stage, five days after inoculation, read-out: Controlling effect (control of disease), Sheath blight of rice
Description: 2-3 Test for controlling effect on sheath blight of rice (Rhizoctonia solani) Rice seedlings at the 4-leaf stage were inoculated with the mycelium of sheath blight of rice (Rhizoctonia solani). After 24 hours, a test medicine solution adjusted to 200 ppm was sprayed onto the seedlings. After air-drying, the seedlings were placed in a humid room for 24 hours where the temperature was kept at 28° C. and humidity was kept at 98%. Thereafter, the seedlings were transferred to a greenhouse, and five days after inoculation, the degree of infected area was examined. The control of disease was calculated by comparison with that in the untreated plot. The control of disease is shown as a controlling effect in the same manner as in Test Example 2-1.

Aspergillus niger = assay: Test for wood rotting-preventing effect (mycelium growth inhibition on malt extract agar); format: cell-based; details: 28° C.±2° C., 2 to 10 days, read-out: Rotting preventing effect (mycelium growth-inhibitory rate), ASN
Description: as §1, with “ASN: Aspergillus niger” for “RHN: Rhizopus nigricans”

[5] = system: Gibberella fujikuroi ("Bakanae" disease of rice); assay: Test for rice seed-disinfecting effect; format: in vivo; details: Fusarium fujikuroi, 504 h, seed immersion 25° C. 24 hours, three weeks after treatment, read-out: Controlling effect (control of disease), "Bakanae" disease of rice
Description: 2-1 Test for rice seed-disinfecting effect
Unhulled rice infected with Gibberella fujikuroi ("Bakanae" disease of rice) was immersed in a test compound adjusted to 1000 ppm at 25° C. for 24 hours. Water was lightly swished off the seed, which was then sowed and germinated for two days. Three weeks after treatment with the solution containing the compound, the rate of the infected seedlings was examined, and the control of disease was calculated by comparison with that of the untreated plot. The control of disease was shown as a controlling effect on the basis of the following standard.

Tyromyces palustris = assay: Test for wood rotting-preventing effect (mycelium growth inhibition on malt extract agar); format: cell-based; details: 28° C.±2° C., 2 to 10 days, read-out: Rotting preventing effect (mycelium growth-inhibitory rate), TYP
Description: as §1, with “TYP: Tyromyces palustris” for “RHN: Rhizopus nigricans”

Trichoderma viride = assay: as above; format: cell-based; details: 28° C.±2° C., 2 to 10 days, read-out: Rotting preventing effect (mycelium growth-inhibitory rate), TRV
Description: as §1, with “TRV: Trichoderma viride” for “RHN: Rhizopus nigricans”

Structure (SMILES)	inhibition of growth at 10 µg/mL [1] [%]	Antimycotic activity (degree of growth, naked eye), T.mentagrophytes [2]	inhibition of growth at 10 µg/mL [3] [%]	inhibition at 50 ppm (Rhizopus nigricans) [%]	pest or weed control at 200 ppm [4] [%]	pest or weed control at 200 ppm (Rhizoctonia solani) [%]	inhibition at 50 ppm (Aspergillus niger) [%]	pest or weed control at 1000 ppm [5] [%]	inhibition at 50 ppm (Tyromyces palustris) [%]	inhibition at 50 ppm (Trichoderma viride) [%]
N#Cc1c(OCOCC#CI)nsc1SCOCC#CI [Compound 141]	100	A	100							
CCSc1snc(OCCC#CI)c1C#N [Compound 71]	100	A	100							
CC(C)Sc1snc(OCOCC#CI)c1C#N [Compound 88]	100	A	100							
CC(C)Oc1nsc(SCOCC#CI)c1C#N [Compound 56]	100	A	100							
CC(OCC#CI)Oc1nsc(N(C)C)c1C#N (stereo not shown) [Compound 123]	100	A	100							
CC(C)COc1snc(OCC#CI)c1C#N [Compound 29]	100	A	100							
CCSc1snc(OCOC(C)(C)C#CI)c1C#N [Compound 101]	100	A	100							
CCSc1snc(OCOCC#CI)c1C#N [Compound 86, 3-(3-iodo-2-propynyloxymethyloxy)-4-cyano-5-ethylthioisothiazole]				95 to 100	95 to 100	80 to 94	95 to 100	95 to 100	95 to 100	95 to 100
N#Cc1c(OCC#CI)nsc1N1CCOCC1 [Compound 35]				80 to 94	95 to 100	80 to 94	95 to 100	80 to 94	95 to 100	95 to 100
CC(OCC#CI)Oc1nsc(SC(F)F)c1C#N (stereo not shown) [Compound 122]				95 to 100	95 to 100	95 to 100	95 to 100	95 to 100	95 to 100	95 to 100
CSc1snc(OCOC(C)C#CI)c1C#N (stereo not shown) [Compound 110]				95 to 100	95 to 100	95 to 100	95 to 100	95 to 100	95 to 100	95 to 100
CCS(=O)(=O)c1snc(OCCC#CI)c1C#N [Compound 78]				95 to 100	80 to 94	95 to 100	95 to 100	95 to 100	95 to 100	95 to 100
CC(=O)Oc1nsc(SCOCC#CI)c1C#N [Compound 67]				95 to 100	80 to 94	95 to 100	80 to 94	80 to 94	95 to 100	80 to 94
CC(C#CI)OCOc1nsc(N(C)C)c1C#N (stereo not shown) [Compound 115]				95 to 100	80 to 94	95 to 100	95 to 100	95 to 100	95 to 100	95 to 100
